Test results taken from US11883492B2, “Combination treatment of chemoresistant cancers” (THE REGENTS OF THE UNIVERSITY OF CALIFORNIA, priority 2018, dated 2024).

Columns and labels:
[1] = tested on: AKT, BMI1; assay: Wnt5a-induced AKT activation and BMI1 expression (immunoblot); format: cell-based; conditions: wt-Hs578T
Description: FIGS. 8A-8B. The figures show Enhanced BMI1 Expression Induced By Wnt5a Is Dependent On Activation Of AKT. (FIG. 8A), BMI1 mRNA level in Hs578T cells treated with Wnt5a at 100 ng/ml at indicated time point were examined by quantitative PCR (qPCR). Data shown were the mean expression levels of BMI1 relative to time 0 samples in triplicate and normalized with respect to GAPDH. Error bars indicate SEM. (FIG. 8B), Hs578T cells were cultured in serum-free medium, pre-treated with or without MK-2206 for 3 hours, and then stimulated with or without Wnt5a at 100 ng/ml for 6 hours. BMI1, pAKT and AKT were examined on these samples via immunoblot analyses. Numbers below the row for AKT provide the ratios of band densities of pAKT to AKT that were normalized to that of samples treated for 0 minutes with Wnt5a. β-Actin served as protein-loading control. Numbers below the row for BMI1 provide the ratios of band densities of BMI1 to β-Actin, normalized with respect to that of samples treated for 0 minutes with Wnt5a.
Immunoblot analyses. Cells used for examination for proteins via immunoblot analysis were treated with control antibody or cirmtuzumab (50 μg/ml) for overnight and then were cultured in medium supplemented with or without recombinant Wnt5a (100 ng/ml). […] The protein concentration was determined using a bicinchoninic acid protein assay (Pierce). […]

[2] = tested on: PDX5; assay: Proportion of ROR1+ cells in residual PDX5 tumors after paclitaxel (flow cytometry); format: in vivo, Rag2−/−γc−/− mice; conditions: PDX5, mice treated with paclitaxel 13.4 mg/kg; untreated 8.5%±5.8%
Description: (§1) Tumorigenicity Assay. Cells were suspended in Mammary-Epithelial Growth Medium (MEGM), mixed with Matrigel (BD Biosciences, San Diego, CA) at a 1:1 ratio, and then transplanted into the mammary pads of Rag2−/−γc−/− mice. We monitored the mice weekly for the development of tumors. We extirpated the tumor to examine the tumor cells for expression of ROR1 at 10 days after treatment with 13.4 mg/kg paclitaxel via intravenously injection for consecutive 5 days. To examine for metastases, we harvested the lungs of 6 mice from each treatment group at 42 or 48 days post-transplantation and fixed the tissue with 10%-formalin, prior to embedding in paraffin. Each paraffin block was cut into 200-μm sections. Tumor foci were scored in a blinded fashion by a board-certified pathologist. To test whether cirmtuzumab alone or in combination with paclitaxel impaired engraftment of primary breast tumor cells, 1×10^5 single cells isolated from PDX4 or PDX5 were injected into the mammary pads of 4- to 6-week-old Rag2−/−γc−/− mice. When tumor size reached 300 mm3, 13.4 mg/kg paclitaxel was injected intravenously for consecutive 5 days or/and 10 mg/kg of cirmtuzumab was injected intravenously at day 0, day 7 and then biweekly.
(§2) Flow cytometry analysis. […]

[3] = tested on: PDX4; assay: Tumorigenicity (re-engraftment) assay with tumor cells of PDX4 removed from treated mice; format: in vivo, Rag2−/−γc−/− mice; conditions: for Tumor incidence (mice with tumors/mice implanted): cells isolated from PDX4 of paclitaxel-treated mice (Table 6, FIG. 2E)
Excerpt: (§3) Patient-Derived xenografts. Four-to-eight-week-old female Rag2−/−γc−/− mice were used in this study following the care and use of laboratory animal guidelines of National Institutes of Health (NIH). The UC San Diego Medical Experimental Animal Care Committee approved the study protocol. The mice were housed in laminar-flow cabinets under specific pathogen-free conditions and fed ad libitum. The PDX were established using mechanically minced fresh breast cancer specimens. Early passage (P1-P5) of primary tumor tissues from these PDX models were mechanically minced, enzymatically and mechanically dissociated using GentleMACS Dissociator (Miltenyi Biotec), in accordance to the manufacturer's instruction. Erythrocytes were removed via density gradient centrifugation in Percoll™ Plus (GE Healthcare Life Sciences, CC-17-5442-01).
as §1

[4] = tested on: tumor cells from PDX4; assay: Cytotoxicity of paclitaxel on PDX tumor cells in vitro after cirmtuzumab or hIgG; format: cell-based; conditions: Homo sapiens
Description: FIG. 10. […] Single cell suspension of PDX4 or PDX5 samples were treated with cirmtuzumab or control antibody with or without increasing concentration of paclitaxel for 24 hours. Data are shown as the mean (±SEM) percentage of viable cells of triplicated samples from each of the treatments as determined by flow cytometry analysis. An asterisk indicates P<0.05 and ** indicates P<0.01 as determined by Student's t-Test.
We treated equivalent numbers of tumor cells from PDX4 or PDX5 with cirmtuzumab or control hIgG at 50 μg/ml overnight and then cultured the cells in separate wells in triplicate with increasing concentrations of paclitaxel.

[5] = tested on: breast cancer PDX; assay: Capacity of PDX tumor cells from treated mice to form secondary PDX; format: in vivo, Rag2−/−γc−/− mice; conditions: cirmtuzumab 10 mg/kg, paclitaxel 13.4 mg/kg or both (FIG. 5C)
Excerpt: as §3
Tumorigenicity Assay. Cells were suspended in Mammary-Epithelial Growth Medium (MEGM), mixed with Matrigel (BD Biosciences, San Diego, CA) at a 1:1 ratio, and then transplanted into the mammary pads of Rag2−/−γc−/− mice. We monitored the mice weekly for the development of tumors. We extirpated the tumor to examine the tumor cells for expression of ROR1 at 10 days after treatment with 13.4 mg/kg paclitaxel via intravenously injection for consecutive 5 days. […] Tumor foci were scored in a blinded fashion by a board-certified pathologist. […]

[6] = tested on: PDX4 or PDX5; assay: CSC features (ALDH1, spheroids, Matrigel invasion, re-engraftment) of PDX tumors from paclitaxel-treated mice; format: in vivo, Rag2−/−γc−/− mice
Description: as §1, §2

[7] = tested on: breast cancer PDX (PDX4, PDX5); assay: Tumor growth of breast-cancer PDX in mice; format: in vivo, Rag2−/−γc−/− mice
Excerpt: as §3
as §1, with “When tumor size reached 300 mm3, 13.4 mg/kg paclitaxel was injected intravenously for consecutive 5 days or/and 10 mg/kg of cirmtuzumab was injected intravenously at day 0, day 7 and then biweekly.” left out
Control groups were injected with hIgG instead of cirmtuzumab. The tumor volume (v) was determined using the formula v=(length)×(width)2×0.4.

[8] = tested on: PDX5; assay: Tumorigenicity (re-engraftment) assay with tumor cells of PDX5 removed from treated mice; format: in vivo, Rag2−/−γc−/− mice; conditions: for Tumor incidence (mice with tumors/mice implanted): cells isolated from PDX5 of paclitaxel-treated mice (Table 6, FIG. 2E)
Excerpt: as §3, §1

[9] = tested on: PDX4; assay: Proportion of ROR1+ cells in residual PDX4 tumors after paclitaxel (flow cytometry); format: in vivo, Rag2−/−γc−/− mice; conditions: PDX4, mice treated with paclitaxel 13.4 mg/kg; untreated 4.5%±1.1%
Description: as §1, §2

NC1(c2ccc(-c3nc4ccn5c(=O)[nH]nc5c4cc3-c3ccccc3)cc2)CCC1 [MK-2206]
Wnt5a-enhanced expression of BMI1 [1]: inhibited the capacity of Wnt5a to enhance expression of BMI1 | Wnt5a-induced activation of AKT [1]: impaired the capacity of Wnt5a to induce activation of AKT

CC(=O)O[C@H]1C(=O)[C@@]2(C)[C@H]([C@H](OC(=O)c3ccccc3)[C@]3(O)C[C@H](OC(=O)[C@H](O)[C@@H](NC(=O)c4ccccc4)c4ccccc4)C(C)=C1C3(C)C)[C@]1(OC(C)=O)CO[C@@H]1C[C@@H]2O [paclitaxel]
Proportion of ROR1+ cells in residual tumors [2]: 56.4%±6.4% | Mice that developed PDX/mice engrafted ([3]; 1 × 10^4 cells from PDX4 that relapsed after therapy (Table 8, FIG. 5C)): 5/5 | Mice that developed PDX/mice engrafted ([3]; 1 × 10^5 cells from PDX4 that relapsed after therapy (Table 8, FIG. 5C)): 5/5 | Tumor incidence (mice with tumors/mice implanted) ([3]; 10^3 cells re-implanted): 4/5 | Tumor incidence (mice with tumors/mice implanted) ([3]; 10^4 cells re-implanted): 5/5 | Frequency of Tumorigenic Cell ([3]; PDX4 from paclitaxel-treated mice, ELDA software (Table 6)): 1/622 | IC50 ([4]; with cirmtuzumab 50 μg/ml overnight (FIG. 10)): 1 ± 1 µM | IC50 ([4]; with non-specific hIgG 50 μg/ml overnight (FIG. 10)): 23 ± 1 µM | Capacity of tumor cells of PDX that relapsed after therapy to re-engraft immune-deficient mice [5]: readily developed secondary PDX | Cells able to form spheroids, invade Matrigel or re-engraft in tumors of treated mice ([6]; versus matched tumors of untreated mice or the original PDX (FIG. 2C-2E)): enriched for cells that could form spheroids, invade Matrigel, or re-engraft | Proportion of ALDH1-expressing cells in tumors of treated mice ([6]; versus matched tumors of untreated mice or the original PDX (FIG. 7J)): higher proportions of ALDH1-expressing cells | Tumor response of secondary PDX ([7]; 13.4 mg/kg for five consecutive days when PDX reached 300 mm^3 (FIG. 2A)): tumor regression | Tumor growth / tumor volumes in PDX4- or PDX5-bearing mice ([7]; cirmtuzumab 10 mg/kg, paclitaxel 13.4 mg/kg or the combination (FIG. 5A)): inhibited tumor growth relative to that of control-treated animals | Tumor regrowth after therapy ([7]; tumors derived from PDX with high proportions of ROR1+ cells (e.g. PDX4 or PDX5), 13.4 mg/kg for five days): re-grew shortly after therapy | Mice that developed PDX/mice engrafted ([8]; 1 × 10^4 cells from PDX5 that relapsed after therapy (Table 8, FIG. 5C)): 3/3 | Mice that developed PDX/mice engrafted ([8]; 1 × 10^5 cells from PDX5 that relapsed after therapy (Table 8, FIG. 5C)): 4/5 | Tumor incidence (mice with tumors/mice implanted) ([8]; 10^3 cells re-implanted): 4/5 | Tumor incidence (mice with tumors/mice implanted) ([8]; 10^4 cells re-implanted): 5/5 | Frequency of Tumorigenic Cell ([8]; PDX5 from paclitaxel-treated mice, ELDA software (Table 6)): 1/622 | Proportion of ROR1+ cells in residual tumors [9]: 61.7%±7.0%
